Experimental data as given in patent publication US10155749B2, “Substituted benzimidazolium compounds useful in the treatment of respiratory diseases” (Boehringer Ingelheim International GmbH, priority 2015, dated 2018).

Tests used:
[1] = Permeability in CALU-3 cells; type: in vitro ADME; conditions: human, CALU-3 monolayers, pH 7.4, 37° C., 10 μM compound; for Papp A→B at 90 min, 10 μM: apical-to-basal; for Papp B→A at 90 min, 10 μM: basal-to-apical
Experimental: Permeability in CALU-3 Cells:
Permeability measurements across polarized, confluent CALU-3 cell monolayers grown on permeable filter supports are used to provide information on the potential of a compound to pass the lung epithelium. Apparent permeability coefficients (Papp) of the compounds across the CALU-3 cell monolayers are measured (pH 7.4, 37° C.) in apical-to-basal (AB) and basal-to-apical (BA) transport direction.
CALU-3 cells (1-2×10^5 cells/1 cm^2 area) are seeded on filter inserts (Costar transwell polycarbonate filters, 0.4 μm pore size) and cultured (for 10-12 days DMEM) until tight monolayers are formed. Compounds of interest are dissolved in appropriate solvent (DMSO, 10 mM stock solution). Stock solutions are diluted with HTP-4 buffer (128.13 mM NaCl, 5.36 mM KCl, 1 mM MgSO4, 1.8 mM CaCl2, 4.17 mM NaHCO3, 1.19 mM Na2HPO4×7H2O, 0.41 mM NaH2PO4×H2O, 15 mM HEPES, 20 mM glucose, 0.25% BSA, pH 7.4) to prepare the transport solutions (10 μM compound, final DMSO<=0.5%). The transport solution (TL) is applied to the apical or basolateral donor side for measuring A-B or B-A permeability (3 filter replicates), respectively. The receiver side contains the same buffer as the donor side. After 30 min of accommodation, samples are collected at the start t0=0 min and at the end of the experiment tn=90 min from the donor and at 0, 30, 60, and 90 min also from the receiver chamber. Volume removed is […] by HTP-4 buffer. The compound concentration in the samples is measured by HPLC-MS/MS or scintillation counting. The permeability coefficient (Papp) and efflux ratio are calculated according to: Papp [cm/s]=(concentration receiver [nM]*volume receiver [mL]/time interval [sec])*(1/filter area)*(1/donor concentration [nM]).

[2] = target: T1, ENaC (Epithelial Sodium Channel) (Mus musculus, UniProt Q61180+Q9WU38+Q9WU39); test: Ussing Chamber assay (short circuit current, amiloride sensitive I_SC) in M-1 cells; type: cell-based; conditions: Mouse kidney M-1 cells, apical application, 37° C.
T1 construct: Mouse kidney M-1 cells were cultivated in DMEM containing 5% FCS and 5 μM dexamethasone; endogenous in cells; host or cells: Mouse kidney M-1 cells
T1 sequence (Q61180 1-699): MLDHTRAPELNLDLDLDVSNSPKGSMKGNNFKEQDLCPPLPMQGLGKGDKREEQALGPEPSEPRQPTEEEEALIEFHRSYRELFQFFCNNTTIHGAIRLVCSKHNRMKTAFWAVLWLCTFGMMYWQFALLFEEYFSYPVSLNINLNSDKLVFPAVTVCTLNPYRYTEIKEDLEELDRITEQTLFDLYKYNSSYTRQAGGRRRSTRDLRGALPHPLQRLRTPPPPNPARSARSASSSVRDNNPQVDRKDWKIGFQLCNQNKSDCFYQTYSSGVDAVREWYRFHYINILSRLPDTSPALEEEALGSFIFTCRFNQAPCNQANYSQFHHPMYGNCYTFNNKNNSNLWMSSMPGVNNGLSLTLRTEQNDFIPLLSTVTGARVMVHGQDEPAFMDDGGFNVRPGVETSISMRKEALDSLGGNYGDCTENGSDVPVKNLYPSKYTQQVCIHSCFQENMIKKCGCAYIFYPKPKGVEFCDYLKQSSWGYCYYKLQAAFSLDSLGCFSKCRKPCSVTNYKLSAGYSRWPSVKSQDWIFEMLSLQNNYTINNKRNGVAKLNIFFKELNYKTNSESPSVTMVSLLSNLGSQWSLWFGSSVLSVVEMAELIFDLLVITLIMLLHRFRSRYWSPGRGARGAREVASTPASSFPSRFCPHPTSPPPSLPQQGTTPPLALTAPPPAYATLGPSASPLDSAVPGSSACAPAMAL
T1 sequence (Q9WU38 1-638): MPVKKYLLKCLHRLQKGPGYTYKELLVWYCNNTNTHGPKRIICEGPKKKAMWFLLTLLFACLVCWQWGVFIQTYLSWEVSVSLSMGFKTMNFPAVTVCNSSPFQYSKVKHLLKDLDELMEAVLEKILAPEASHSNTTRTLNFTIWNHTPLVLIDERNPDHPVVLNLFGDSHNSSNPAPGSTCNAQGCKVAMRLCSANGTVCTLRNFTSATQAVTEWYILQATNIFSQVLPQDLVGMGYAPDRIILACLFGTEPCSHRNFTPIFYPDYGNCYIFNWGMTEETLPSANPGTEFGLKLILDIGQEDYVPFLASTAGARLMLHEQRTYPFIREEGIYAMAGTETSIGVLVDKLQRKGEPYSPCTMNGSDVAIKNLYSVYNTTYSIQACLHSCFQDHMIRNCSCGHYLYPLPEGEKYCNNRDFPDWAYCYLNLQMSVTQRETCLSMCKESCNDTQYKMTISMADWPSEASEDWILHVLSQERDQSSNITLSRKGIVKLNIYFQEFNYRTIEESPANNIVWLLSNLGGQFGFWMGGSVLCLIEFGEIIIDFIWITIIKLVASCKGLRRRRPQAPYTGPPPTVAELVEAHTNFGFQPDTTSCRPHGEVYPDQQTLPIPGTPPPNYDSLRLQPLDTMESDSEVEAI
T1 sequence (Q9WU39 1-655): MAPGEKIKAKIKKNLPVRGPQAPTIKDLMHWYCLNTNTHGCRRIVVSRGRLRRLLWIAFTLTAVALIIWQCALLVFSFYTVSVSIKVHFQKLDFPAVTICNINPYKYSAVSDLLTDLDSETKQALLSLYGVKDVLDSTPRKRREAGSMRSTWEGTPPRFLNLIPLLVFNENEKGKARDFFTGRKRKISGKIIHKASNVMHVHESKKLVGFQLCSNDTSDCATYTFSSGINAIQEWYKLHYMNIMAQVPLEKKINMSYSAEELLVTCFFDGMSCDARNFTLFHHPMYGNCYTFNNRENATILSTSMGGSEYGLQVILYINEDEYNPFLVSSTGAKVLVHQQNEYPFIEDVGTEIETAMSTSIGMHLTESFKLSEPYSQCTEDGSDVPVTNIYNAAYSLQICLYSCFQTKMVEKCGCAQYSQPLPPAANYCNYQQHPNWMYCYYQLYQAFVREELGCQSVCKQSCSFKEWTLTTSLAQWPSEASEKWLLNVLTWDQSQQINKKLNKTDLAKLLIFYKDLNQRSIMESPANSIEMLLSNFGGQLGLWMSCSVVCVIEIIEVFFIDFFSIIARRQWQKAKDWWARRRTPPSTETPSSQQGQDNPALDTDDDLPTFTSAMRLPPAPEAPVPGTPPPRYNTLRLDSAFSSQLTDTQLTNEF
Experimental: The IC50 values of the example compounds given above were determined in the Ussing Chamber assay.
Ussing Chamber: Mouse kidney M-1 cells were cultivated in DMEM containing 5% FCS and 5 μM dexamethasone for 10 to 12 days on polyester transwell filters. Filters were inserted into a teflon-coated well-plate which fit into the ussing chamber system. Prior to measurement the medium of M-1 cells was replaced with Caco-2 transport buffer (Invitrogen, Germany). During measurements, the Ussing chamber temperature was kept at 37° C. Short circuit currents (I_sc) were measured in the voltage-clamp mode with the software package Lab View for data acquisition and analysis. The transepithelial electrical resistance (TEER) was determined by the application of voltage steps of ±5 mV every 5 sec. Compounds were administered at a final concentration of 3 μM or at increasing concentrations (1-3-10 μM) to the apical solution. At the end of each experiment the amiloride sensitive I_SC was measured by adding 3 μM amiloride to the apical compartment. Results are expressed as inhibition in percent of the amiloride effect or as IC50.

| SMILES | Papp A→B at 90 min, 10 μM [1] | Papp B→A at 90 min, 10 μM [1] | IC50 [2] |
| --- | --- | --- | --- |
| CCn1c(CNC(=O)c2nc(Cl)c(N)nc2N)[n+](CC)c2ccc(OCCNC(=O)CCN(C)C)cc21.Cl [Example 4.01] | 0.2 ×10⁻⁶ cm/s | 0.2 ×10⁻⁶ cm/s | 1 nM |
| CCn1c(CNC(=O)c2nc(Cl)c(N)nc2N)[n+](CC)c2ccc(C(=O)NCCN(C)C)cc21.Cl.[Cl-] [Example 3.06] | 0.02 ×10⁻⁶ cm/s | 0.03 ×10⁻⁶ cm/s | 1 nM |
| CCOCCNC(=O)c1cc2c(cc1N1CCOCC1)n(CC)c(CNC(=O)c1nc(Cl)c(N)nc1N)[n+]2CC.[Cl-] [Example 5.01] | 0.3 ×10⁻⁶ cm/s | 0.06 ×10⁻⁶ cm/s | 5 nM |
| CCCCCCN1CCC(NC(=O)c2cc3c(cc2F)n(CC)c(CNC(=O)c2nc(Cl)c(N)nc2N)[n+]3CC)CC1.O=CO.O=C[O-] [Example 10.01] | 0.3 ×10⁻⁶ cm/s | 0.3 ×10⁻⁶ cm/s | 1 nM |

Continued by falling IC50 [2], values first:

| Papp A→B at 90 min, 10 μM [1] | Papp B→A at 90 min, 10 μM [1] | IC50 [2] | SMILES |
| --- | --- | --- | --- |
| 0.1 ×10⁻⁶ cm/s | 0.04 ×10⁻⁶ cm/s | 8 nM | CC[n+]1c(CNC(=O)c2nc(Cl)c(N)nc2N)n(CC2CCCCC2)c2cc(OCCOP(=O)(O)CCC[N+](C)(C)C)ccc21 [Example 1.12] |
| 0.2 ×10⁻⁶ cm/s | 0.3 ×10⁻⁶ cm/s | 2 nM | CCn1c(CNC(=O)c2nc(Cl)c(N)nc2N)[n+](CC)c2ccc(OCC(=O)N(Cc3nc(C)ccc3O)C[C@H](C)O)cc21.O=C([O-])C(F)(F)F [Example 3.05] |
| 0.08 ×10⁻⁶ cm/s | 0.06 ×10⁻⁶ cm/s | 1 nM | CCn1c(CNC(=O)c2nc(Cl)c(N)nc2N)[n+](CC)c2ccc(OCCNC(=O)[C@H](C)NC)cc21.Cl.[Cl-] [Example 6.02] |
